We go through 2 substances from patent US20070298997A1, “Compounds useful in treating diabetic microvascular complications and age-related macular degeneration” (priority 2003, published 2007).

Series [1] relates to Retinal capillary endothelial cells (RCEC). Put plainly: Quantification of viable cells by MTT assay, RCEC. The format is cell-based, bovine. Conditions: 5 μM, 48 h. On the procedure:
FIG. 2 illustrates the specific inhibition of endothelial cell proliferation by recombinant kallistatin. RCEC were treated with recombinant kallistatin at concentrations of 5,10, 20, 40, 80 and 160 nM for 72 h. Viable cells were quantified by MTT assay. […] This effect appeared to be kallistatin concentration-dependent, with an apparent IC50 of 50 nM (FIG. 2) which is similar to that of K5, a known angiogenic inhibitor (Zhang et al., 2001).
FIG. 7 illustrates the effects of B1 and B2 kinin receptor antagonists on RCEC. In order to test whether the anti-angiogenic activity of kallistatin is via reducing kinin production by inhibiting kallikrein activity, RCEC were treated with 5 μM des-Arg^9-[Leu^8]-bradykinin, a specific antagonist of the B1 kinin receptor or Hoe-140, a specific B2 kinin receptor antagonist, in the presence or absence of 40 nM kallistatin for 48 h, and viable cells were quantified by MTT assay.
Quantification of viable cells: Cells were plated in 12-well plates in triplicate and cultured in the growth medium until they reached 60-70% of confluency. The culture medium was replaced with a medium containing 1% fetal bovine serum (FBS). Recombinant kallistatin was added to the cover medium to various concentrations and incubated with the cells for 72 h. The viable cells were quantified by the MTT (3-[4,5-dimethylthiazol-2-yl]-2,5-dephenyl tetrazolium bromid, Roche, Mannheim, Germany) assay following a protocol recommended by the manufacturer. The effect of kallistatin on viable cell number was analyzed using Student's t test.
On the technique in general: Tetrazolium assays rely on reduction of a dye to a coloured formazan, in cell work by metabolically active cells.

In another series the test system is B1 receptor. The conditions noted are these: at 1 mM; cited from earlier work.

As to “des-Arg^9-[Leu^8]-bradykinin [reference compound]”, the “viable cells, % of the control” value in series [1] (P<0.05) is given as 85 % of the control. The “block of bradykinin-induced endothelial cell proliferation” value in the series on B1 receptor is on record as “completely block bradykinin-induced endothelial cell proliferation”.
For the substance Hoe-140 [reference compound], the “inhibition of RCEC (viable cells)” value in series [1] (P>0.05) is recorded as “no significant inhibition”.
